Patent publication US20160030391A1, “METHODS AND COMPOSITIONS FOR IMPROVING COGNITIVE FUNCTION” (THE JOHNS HOPKINS UNIVERSITY, priority 2013, published 2016)

What was measured:
[1] = levetiracetam blood plasma levels in aged-impaired rats; type: in vivo; details: rat, 60 mg/kg/day, 28-day treatment, read-out: mean levetiracetam blood plasma level
Excerpt: Rats: Blood was drawn from aged-impaired rats by cardiac puncture during perfusion after a 28-day levetiracetam treatment period and sent for analysis of levetiracetam plasma levels by MedTox Laboratories in St. Paul, Minn.

aMCI subjects [2] = assay: Verbal Paired Associates Test - Delayed Recall; type: in vivo, human; details: levetiracetam 125 mg twice a day for two weeks
Excerpt: (§1) Breaks are provided to the subject as needed.

aMCI subjects [3] = assay: Verbal Paired Associates Test - Recognition; type: in vivo, human; details: levetiracetam 125 mg twice a day for two weeks
Excerpt: as §1

aged-impaired (AI) rats = assay: eight-arm Radial Arm Maze task, one-hour delay, aged-impaired rats; type: in vivo, rat; details: for average no. of errors±SEM: one-hour delay; for effective in reducing the number of errors by AI rats in the radial arm maze: levetiracetam on its own
Protocol: The effects of levetiracetam on the spatial memory retention of aged-impaired (AI) rats were assessed in a Radial Arm Maze (RAM) behavioral task using vehicle control and five different dosage levels of levetiracetam (1.25 mg/kg/day, 2.5 mg/kg/day, 5 mg/kg/day, 10 mg/kg/day and 20 mg/kg/day). RAM behavioral tasks were preformed on ten AI rats. All six treatment conditions were tested on all ten rats, as described above for the MWM test. The RAM apparatus used consisted of eight equidistantly-spaced arms. An elevated maze arm (7 cm width x 75 cm length) projected from each facet of an octagonal center platform (30 cm diameter, 51.5 cm height). Clear side walls on the arms were 10 cm high and were angled at 65° to form a trough. A food well (4 cm diameter, 2 cm deep) was located at the distal end of each arm. Froot Loops™ (Kellogg Company) were used as rewards. Blocks constructed of Plexiglas™ (30 cm height x 12 cm width) could be positioned to prevent entry to any arm. Numerous extra maze cues surrounding the apparatus were also provided. The AI rats were initially subjected to a pre-training test (Chappell et al. Neuropharmacology 37: 481-487, 1998). The pre-training test consisted of a habituation phase (4 days), a training phase on the standard win-shift task (18 days) and another training phase (14 days) in which a brief delay was imposed between presentation of a subset of arms designated by the experimenter (e.g., 5 arms available and 3 arms blocked) and completion of the eight-arm win-shift task (i.e., with all eight arms available). In the habituation phase, rats were familiarized to the maze for an 8-minute session on four consecutive days. In each of these sessions food rewards were scattered on the RAM, initially on the center platform and arms and then progressively confined to the arms. After this habituation phase, a standard training protocol was used, in which a food pellet was located at the end of each arm. Rats received one trial each day for 18 days. Each daily trial terminated when all eight food pellets had been obtained or when either 16 choices were made or 15 minutes had elapsed. After completion of this training phase, a second training phase was carried out in which the memory demand was increased by imposing a brief delay during the trial. At the beginning of each trial, three arms of the eight-arm maze were blocked. Rats were allowed to obtain food on the five arms to which access was permitted during this initial ‘information phase’ of the trial. Rats were then removed from the maze for 60 seconds, during which time the barriers on the maze were removed, thus allowing access to all eight arms. Rats were then placed back onto the center platform and allowed to obtain the remaining food rewards during this ‘retention test’ phase of the trial. The identity and configuration of the blocked arms varied across trials. The number of “errors” the AI rats made during the retention test phase was tracked. An error occurred in the trial if the rats entered an arm from which food had already been retrieved in the pre-delay component of the trial, or if it re-visited an arm in the post-delay session that had already been visited. After completion of the pre-training test, rats were subjected to trials with more extended delay intervals, i.e., a one-hour delay, between the information phase (presentation with some blocked arms) and the retention test (presentation of all arms). During the delay interval, rats remained off to the side of the maze in the testing room, on carts in their individual home cages. AI rats were pretreated 30-40 minutes before daily trials with a one-time shot of the following six conditions: 1) vehicle control (0.9% saline solution); 2) levetiracetam (1.25 mg/kg/day); 3) levetiracetam (2.5 mg/kg/day); 4) levetiracetam (5 mg/kg/day); 5) levetiracetam (10 mg/kg/day); 6) levetiracetam (20 mg/kg/day); through intraperitoneal (i.p.) injection. Injections were given every other day with intervening washout days. […]

For `CC[C@@H](C(N)=O)N1CCCC1=O` [levetiracetam, (2S)-2-(2-oxopyrrolidin-1-yl)butanamide], the concentration at 28 days [1] was 22400 ng/mL, the “performance in Verbal Paired Associates Test—Delayed Recall” value (aMCI subjects [2]) was “fail to rescue performance” and the “performance in Verbal Paired Associates Test—Recognition” value (aMCI subjects [3]) was “fail to rescue performance”. For the same compound, the “effective doses of levetiracetam used in the animal model” value (aged-impaired (AI) rats; given acutely, AI rats) was 5 to 10 mg/kg, the “average no. of errors±SEM” value (aged-impaired (AI) rats; levetiracetam 5 mg/kg/day i.p.) was 0.75±0.32 and the “average no. of errors±SEM” value (aged-impaired (AI) rats; levetiracetam 10 mg/kg/day i.p.) was 0.80±0.27. The “performance of AI rats in the radial maze task” value (aged-impaired (AI) rats; levetiracetam 20 mg/kg) was “fails to improve the performance”, the “effective in reducing the number of errors by AI rats in the radial arm maze” value (aged-impaired (AI) rats; 1.25 mg/kg) was “not” and the “effective in reducing the number of errors by AI rats in the radial arm maze” value (aged-impaired (AI) rats; 2.5 mg/kg) was “not”. The “effective in reducing the number of errors by AI rats in the radial arm maze” value (aged-impaired (AI) rats; 5-10 mg/kg) was “effective”.
